The source of these data is publication PMC9532951, “Identification and characterization of a novel SNAT2 (SLC38A2) inhibitor reveals synergy with glucose transport inhibition in cancer cells” (Frontiers in Pharmacology, 2022).

For test [1], the system named is SKOV3 cells. Nature of the test: Growth assay (IncuCyte confluence), SKOV3. Set-up: key to Growth (Figure 6A): % confluence. As to conditions: for Growth (Figure 6A): SKOV3. Type of test: cell-based, human. Here is the method:
(§1) Cells were seeded on 96-well flat bottom plates at approximately 3000 cells/well and incubated in growth medium (DMEM/F12 supplemented with 10% FBS, 2 mM glutamine) for 24 h. The next day, the growth medium was aspirated and exchanged with 300 μL/well of growth medium containing compounds at the indicated concentration. For live cell analysis, plates were placed in the IncuCyte system (Essen Bioscience), which was housed in a cell incubator (37°C, humidified atmosphere composed of 95% air and 5% CO2) and confluence measured at 6-h intervals or at the assay endpoint when untreated control cells reached a confluency >90%. Antibiotics (10 U/mL penicillin and 10 μg/ml streptomycin) were included in the treatment solutions.
(§2) Growth curves were generated using the Gompertz function of OriginPro software: y=ae^−e^(−k(x−xc))
(§3) Where a is the maximum confluence or upper asymptote, k is the growth rate coefficient, xc is the time point at which 50% confluence is reached (inflection point) and e is Euler’s number. Cell growth data are shown as % confluence.

Test [2] deals with HCC1806 cells. In words: Growth assay (IncuCyte confluence), HCC1806. Type of test: cell-based, human. As to conditions: HCC1806, growth medium. Here is the method:
as §1, §2, §3

The subject of test [3] is SKOV3 cells. In words: [14C]alanine uptake in non-depleted SKOV3 cells. Type of test: cell-based, human. As to conditions: amino acid replete SKOV3 cells. Here is the method: (§4) Functional characterisation of plasma membrane transporters in human cancer cells was determined at 37°C using an array of radiolabelled amino acid substrates. Modified Hanks HEPES-buffered salts solution (mHBSS; 137 mM NaCl; 5.4 mM KCl; 2.7 mM K2HPO4; 1 mM CaCl2; 0.5 mM MgCl2; 0.44 mM KH2PO4; 0.4 mM MgSO4; 5 mM D-glucose; 5 mM HEPES; pH 7.4) was used to wash and incubate cells where sodium dependent transport was measured, while N-methyl-D-glucamine (NMDG) and potassium salts substituted sodium in NMDG mHBSS to measure sodium independent uptake. For the assay, cells were seeded in 35 mm dishes and, once confluent, were washed thrice with warm mHBSS solution and incubated with mHBSS containing an 100 µM amino acid at a final specific activity of ≥2000 cpm/nmol (U-[^14C]amino acids were from PerkinElmer). After 6 min, cells were washed thrice with ice-cold mHBSS, lysed with 500 µl of 0.1 M HCl, detached with a cell scraper and triturated. A 400 µl aliquot was used for scintillation counting, while the remainder was saved for protein mass quantification by Bradford assay. Transport rates were normalised to the protein content of the culture dish.

Another test has as its system OVCAR3 cells. Nature of the test: Growth assay (IncuCyte confluence), OVCAR3. It counts as cell-based, human. The method in brief:
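OVCAR3 cells were seeded at about 3000 cells/well in 96-well plates in DMEM/F12 with 10% FBS and 2 mM glutamine for 24 h. They then received 300 μL/well of medium with compounds plus penicillin/streptomycin. Plates sat in an IncuCyte at 37°C and 5% CO2, and confluence was imaged every 6 h or at the endpoint once untreated controls passed 90%. Growth is given as % confluence, and curves were fitted with the Gompertz function in OriginPro.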

The target of the next test is T1, SNAT2 (Homo sapiens, UniProt Q96QD8).
T1 sequence (Q96QD8 1-506): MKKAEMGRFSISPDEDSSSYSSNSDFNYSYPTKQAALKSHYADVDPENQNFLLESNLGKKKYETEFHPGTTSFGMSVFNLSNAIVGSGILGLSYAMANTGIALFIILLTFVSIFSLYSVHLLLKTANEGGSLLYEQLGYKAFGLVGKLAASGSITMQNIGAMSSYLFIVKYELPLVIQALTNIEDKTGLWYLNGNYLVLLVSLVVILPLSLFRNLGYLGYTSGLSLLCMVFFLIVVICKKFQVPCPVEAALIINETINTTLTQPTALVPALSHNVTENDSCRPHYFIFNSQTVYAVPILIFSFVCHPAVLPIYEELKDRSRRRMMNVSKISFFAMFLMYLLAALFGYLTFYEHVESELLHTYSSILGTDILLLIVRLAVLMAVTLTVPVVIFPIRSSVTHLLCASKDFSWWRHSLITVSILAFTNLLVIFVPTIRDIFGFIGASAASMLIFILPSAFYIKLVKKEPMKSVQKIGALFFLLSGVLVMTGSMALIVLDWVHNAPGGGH
In words: Radiolabelled proline uptake in amino acid depleted SKOV3 cells. Type of test: cell-based. The arrangement: SKOV3 cells pre-incubated in starvation medium for 24 h to induce SNAT2 expression; endogenous in cells; host or cells: SKOV3 ovarian cancer cells, amino acid depleted for 15 or 24 h. Here is the method:
as §4
IC50 were calculated using equation y=ymax(1−x/x+IC50)

Test [4] has as its system HCC1806 cells. In words: Assay of glycolytic activity (extracellular lactate). It counts as cell-based, human. As to conditions: 57E 20 μM. Here is the method:
Glycolytic activity was measured by detecting extracellular lactate levels over a 48-h time course. HCC1806 and HPAFII cells were seeded on a 24-well plate at approximately 500,000 and 700,000 cells/well, respectively, and incubated in growth medium overnight. The following day, the growth medium was aspirated and each well was washed once with growth medium and 1.3 ml of the treatment solution was added to begin the time-course. In addition to sampling the medium at the start of the experiment, 50 μL was collected from each well at the following time points: 9, 24 and 48 h. Samples were stored at −20°C until further use. Lactate was detected by an enzymatic assay, which consisted of combining in microcentrifuge tubes: 5 μl of sample, 45 μl of water; 25 μl of 40 mM NAD^+; 421 μl of buffer (1M glycine, 600 mM hydrazine sulfate, 5.6 mM EDTA; adjusted to pH 9.5 with sodium hydroxide); and 4 μL of L-lactate dehydrogenase solved at 300U/mL (3.33 mg/ml). The tubes were briefly vortexed and incubated for 15 min before transferring 200 μL of the mixture to a 96-well plate. The calibration curve spanned final concentrations from 5 to 500 μM. Absorbance was measured at 340 nm to detect NADH. Lactate production was normalised to total cellular protein per well as measured by the Bradford assay.

Structures are written as SMILES. Where “and” joins values, the source holds several entries; their conditions need not be identical. Equal entries are not always repeated.

As usually defined, the IC50 is the midpoint of a concentration-inhibition curve. For the molecule `Cc1ccc(S(=O)(=O)N(C)c2ccsc2C(=O)NCc2ccccc2C(F)(F)F)cc1` [Compound 57_E, 3-(N-methyl (4-methylphenyl)sulfonamido)-N-(2-trifluoromethylbenzyl)thiophene-2-carboxamide], the “growth of SKOV3 cells” value in the test with SKOV3 cells [1] (57E 20 µM alone) was “did not slow growth”. Moreover, the tolerated concentration result is on record as “up to 30 μM” in the test with SKOV3 cells [1] (SKOV3, growth medium) and “up to 30 μM” in the test on HCC1806 cells [2]. Further, the “Growth (Figure 6A)” value in the test with SKOV3 cells [1] (concentration 1) was 88.8 and 91.35 and 86.25; with SKOV3 cells [1] (concentration 3), 85.9 and 94.3 and 88.85; with SKOV3 cells [1] (concentration 10), 89 and 93.8 and 85; with SKOV3 cells [1] (concentration 30), 64.8 and 80.1 and 77.7; with SKOV3 cells [1] (concentration 100), 70.05 and 72.4 and 76.75; with OVCAR3 cells (concentration 1), 94.3 and 98.2 and 97.5. In addition, the “Growth (Figure 6A)” value in the test with OVCAR3 cells (concentration 3) was 91.1 and 97.6 and 98.2; in the test on OVCAR3 cells (concentration 10), 93.85 and 97.6 and 98.05; in the test on OVCAR3 cells (concentration 30) it was 90.7 and 97.95; with OVCAR3 cells (concentration 100), 89.25 and 92.95 and 91.35. For the same molecule, in the test with SKOV3 cells [3], the “inhibition of [14C]alanine uptake” value is “did not inhibit any transporter in this cell line”. In addition, the “SNAT2 transport rate of proline” value on SNAT2 (Concentration 0.01 uM, betaine resistant transport subtracted) is listed as 5.421 nmol / mg protein x 6 min; on SNAT2 (Concentration 0.03 uM), 5.227 nmol / mg protein x 6 min; on SNAT2 (Concentration 0.1 uM) it was 4.344 nmol / mg protein x 6 min; at SNAT2 (Concentration 0.3 uM) it was 3.331 nmol / mg protein x 6 min; at SNAT2 (Concentration 1 uM), 2.267 nmol / mg protein x 6 min; at SNAT2 (Concentration 3 uM), -0.2231 nmol / mg protein x 6 min. For the same molecule, the “SNAT2 transport rate of proline” value on SNAT2 (Concentration 10 uM) was -0.6681 nmol / mg protein x 6 min. For the same molecule, the IC50 at SNAT2 (betaine-sensitive fraction of proline uptake, SKOV3 AA- (15h)) is 0.8 ± 0.4 µM; against SNAT2 (in two different assays) it was 0.8 to 3 µM. Moreover, the lactate production result with HCC1806 cells [4] is “increased”.
